According to patent publication US10894808B2, “Polypeptide ligands specific for plasma kallikrein” (BicycleRD Limited, priority 2013, dated 2021):
Read-outs that look alike come from different tables or passages of the source. *1 amine or outer side, *2 acyl side, *3 side chain or, on linkers, in order; H or OH if unused. Where a SMILES comes first, the peptide text is derived from it. Bridges are numbered along the chain shown (N, C = ends). [ ]: non-standard residue; d: D form. TBMB = c1c(C[*:1])cc(C[*:3])cc1C[*:2]; hArg = N=C(N)NCCCC[C@H](N)C(=O)O; Aze = O=C(O)[C@@H]1CCN1

Assays:
[1] = Plasma stability profiling Method #2 (95% plasma, MALDI-TOF), rat plasma; type: in vitro ADME; conditions: qualitative, sampled up to 46 hrs
Method: (§1) To obtain stability data more rapidly, peptides were also assessed in 95% plasma. Here, PBS was omitted, and a 1-5 mM peptide stock (in DMSO) was directly diluted into plasma (i.e. 2.5 μL stock into 47.5 μL plasma), giving a final concentration of 50 μM. 5 μL samples were taken at appropriate time points and frozen at −80° C. For analysis, the samples were defrosted, mixed with 25 μL of 3:3:1 acetonitrile:methanol:water, and centrifuged at 13 k for 5 min. 5 μL of the peptide-containing supernatant was aspirated and mixed with 30 mM ammonium bicarbonate in a 1:1 mixture of acetonitrile:H2O. 1 μL of this was then spotted on the MALDI plate and analysed as described above. As above, it should be noted that this is a qualitative assay serves to detect relative changes in plasma stability.

[2] = Plasma stability profiling Method #2 (95% plasma, MALDI-TOF), human plasma; type: in vitro ADME; conditions: qualitative, sampled up to 46 hrs
Method: as §1

rabbit kallikrein = rabbit kallikrein (Oryctolagus cuniculus, UniProt G1T127); experiment: Functional enzyme assay, inhibition of rabbit kallikrein; type: biochemical; conditions: read-out: Rabbit (Ki)
Method: (§2) Functional enzyme assays were conducted in 10 mM Tris HCl, 150 mM NaCl, 10 mM MgCl2, 1 mM CaCl2 and 1 mg/mL BSA (all Sigma UK) pH 7.4 at 25° C. in solid black 96 or 384 well plates. […] Release of AMC was measured using a Pherastar FS (BMG Labtech), excitation 360 nm, emission 460 nm. The rate of the linear phase of the reaction, typically 5 to 45 minutes, was calculated in MARS data analysis software (BMG labtech). The rate was then used to calculate the IC50 and Ki in Prism (GraphPad). A four parameter inhibition non-linear regression equation was used to calculate the IC50. […]
(§3) Peptides were dissolved as the TFA-salts in their powder form, and stock solutions were usually prepared in water. All solutions were centrifuged and filtered ([…] syringe filters) prior to absorption measurement at 280 nm. Extinction coefficients were calculated based on the Trp/Tyr content of the peptide, and that of TMB (the TMB core, when contained in a peptide, has an extinction coefficient of ˜300 M^−1 cm^−1).

human plasma kallikrein = target: T1, human plasma kallikrein (Homo sapiens, UniProt P03952); experiment: Functional enzyme assay, inhibition of human plasma kallikrein (Z-PheArg-AMC substrate); type: biochemical
T1 construct: purchased Stratech, UK
Method: as §2, §3

rat plasma kallikrein = target: T2, rat plasma kallikrein (Rattus norvegicus, UniProt P14272); experiment: Functional enzyme assay, inhibition of rat plasma kallikrein (Z-PheArg-AMC substrate); type: biochemical
T2 construct: polyhistidine tag followed by proTEV cleavage site (pro-peptide) (N, cleaved yes); made in house; host or cells: HEK-293 (suspension-adapted), pEXPR-IBA42 vector
Method: as §2, §3

[3] = target: T3, biotinylated human plasma kallikrein (Homo sapiens, UniProt P03952); experiment: Homogeneous plate-based screening assay of TBMB-cyclised phage clones (signal:background); type: binding
T3 construct: The human kallikrein is non-recombinant and therefore the heavy chain is present; purchased Innovative Research, Novi, Mich., USA IHPKA; host or cells: from human plasma
Method: Assay of binding of individual clones: Library transformant colonies were picked at random and grown as individual cultures in 2TY broth containing selective antibiotic. The picked colonies were DNA-sequenced using a QIAgen PyroMark Q96 DNA sequencer to reveal the amino-acid substitution present in each clone. Where isolated, a clone of each unique substitution was assayed for human plasma kallikrein binding as follows. The phage-containing supernatant was harvested from the culture and phage were cyclised with tris bromomethyl benzene (TBMB) based on the methods of Heinis et al (Nature Chemical Biology vol. 5 pp 502-507 (2009)). The purified phage from this process were assayed for binding to biotinylated human plasma kallikrein using a homogeneous plate-based binding assay; assay read-out measured on a BMG Labtech Pherastar FS plate reader. The quantitative binding data from triplicate assay samples was averaged (mean) and expressed as signal:background (where background was a sample assayed with no target material). The signal:background was expressed as a % of the parallel parent sample. Error bars denote standard deviation of the mean. Assays shown are representative of at least 2 independent experiments. The assay data was correlated with the peptide sequences. Substitutions marked in grey were not tested (a clone was not isolated from the random library sampling). A sample of a non-binding (arbitrary) bicycle was assayed in parallel to illustrate the assay baseline.
Assay of binding of individual clones: Library transformant colonies, or selection output colonies, were picked and grown as individual cultures in 2TY broth containing selective antibiotic. The picked colonies were DNA-sequenced using a QIAgen PyroMark Q96 DNA sequencer to reveal the amino-acid substitution present in each clone, and were assayed for human plasma kallikrein binding as follows. The phage-containing supernatant was harvested from the culture and phage were cyclised with tris-bromomethylbenzene (TBMB) based on the methods of Heinis et al (Nature Chemical Biology vol. 5 pp 502-507 (2009)). The purified phage from this process were assayed for binding to biotinylated human plasma kallikrein using a homogeneous plate-based binding assay; assay read-out measured on a BMG Labtech Pherastar FS plate reader. The quantitative binding data from duplicate assay samples was averaged (mean) and expressed as signal:background. Assay data shown is representative of at least 2 independent experiments. The assay data was correlated with the peptide sequences.

[4] = Aqueous solubility (qualitative); type: physicochemical; conditions: in words
[5] = Table 1, synthetic peptides, read-out: Human (Ki)
[6] = Table 1, synthetic peptides, read-out: Rat (Ki)
[7] = Table 3, 06-254 affinity-matured library
[8] = Table 4, 06-259 affinity-matured library

Chain of rabbit kallikrein (G1T127 20-629): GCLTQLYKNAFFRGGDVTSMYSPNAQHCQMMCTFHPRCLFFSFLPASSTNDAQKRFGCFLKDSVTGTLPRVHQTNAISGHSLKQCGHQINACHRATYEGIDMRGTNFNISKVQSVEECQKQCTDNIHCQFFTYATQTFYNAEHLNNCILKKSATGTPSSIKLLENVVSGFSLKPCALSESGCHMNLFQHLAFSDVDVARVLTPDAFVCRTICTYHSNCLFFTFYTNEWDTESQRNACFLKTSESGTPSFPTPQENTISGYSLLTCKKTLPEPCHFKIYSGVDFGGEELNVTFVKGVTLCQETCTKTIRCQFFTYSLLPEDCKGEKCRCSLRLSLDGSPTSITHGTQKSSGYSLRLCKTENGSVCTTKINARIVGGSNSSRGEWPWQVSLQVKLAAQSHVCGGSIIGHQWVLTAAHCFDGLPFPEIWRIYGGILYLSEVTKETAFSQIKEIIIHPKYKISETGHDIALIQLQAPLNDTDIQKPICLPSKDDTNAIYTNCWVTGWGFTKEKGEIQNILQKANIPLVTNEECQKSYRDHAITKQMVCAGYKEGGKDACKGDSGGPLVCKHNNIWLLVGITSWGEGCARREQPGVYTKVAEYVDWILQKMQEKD
T2 sequence (P14272 391-638 limits assumed): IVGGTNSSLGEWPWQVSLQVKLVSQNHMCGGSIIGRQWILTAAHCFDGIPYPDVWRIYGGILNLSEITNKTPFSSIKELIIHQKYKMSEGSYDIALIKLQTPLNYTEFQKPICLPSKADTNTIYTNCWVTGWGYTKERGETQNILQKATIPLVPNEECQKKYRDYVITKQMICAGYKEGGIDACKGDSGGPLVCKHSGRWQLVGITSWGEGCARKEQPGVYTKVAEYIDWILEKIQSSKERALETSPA
T3 sequence (P03952 391-638 limits assumed): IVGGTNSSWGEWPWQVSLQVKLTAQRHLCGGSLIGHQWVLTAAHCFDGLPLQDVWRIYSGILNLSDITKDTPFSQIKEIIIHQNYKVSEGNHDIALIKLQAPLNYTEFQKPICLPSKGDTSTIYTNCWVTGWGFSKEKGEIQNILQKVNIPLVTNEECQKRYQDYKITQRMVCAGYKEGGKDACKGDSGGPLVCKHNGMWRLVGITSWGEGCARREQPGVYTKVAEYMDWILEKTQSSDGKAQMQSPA
T3 sequence (P03952 20-390 partner limits assumed): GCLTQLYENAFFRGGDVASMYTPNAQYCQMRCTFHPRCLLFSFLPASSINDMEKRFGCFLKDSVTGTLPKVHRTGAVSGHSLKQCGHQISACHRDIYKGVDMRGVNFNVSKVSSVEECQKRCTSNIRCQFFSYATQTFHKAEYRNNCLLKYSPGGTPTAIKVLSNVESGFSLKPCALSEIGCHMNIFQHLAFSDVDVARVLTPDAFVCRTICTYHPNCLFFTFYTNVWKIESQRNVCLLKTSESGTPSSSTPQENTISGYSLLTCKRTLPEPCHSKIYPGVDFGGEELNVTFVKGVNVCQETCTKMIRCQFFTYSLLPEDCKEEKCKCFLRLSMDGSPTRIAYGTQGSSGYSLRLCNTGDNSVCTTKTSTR
T1 sequence (P03952 391-638 limits assumed): as the sequence (P03952 391-638 limits assumed) above
T1 sequence (P03952 20-390 partner limits assumed): as the sequence (P03952 20-390 partner limits assumed) above

For `CC(C)C[C@@H]1NC(=O)[C@H](CC(=O)O)NC(=O)[C@H](CCC(N)=O)NC(=O)[C@H](Cc2c[nH]cn2)NC(=O)[C@H](CC(C)C)NC(=O)[C@@H]2CSCc3cc(cc(c3)CSC[C@H](N)C(=O)N[C@@H](CO)C(=O)N[C@@H](Cc3c[nH]c4ccccc34)C(=O)N3CCC[C@H]3C(=O)N[C@@H](C)C(=O)N[C@@H](CCCNC(=N)N)C(=O)N2)CSC[C@@H](C(N)=O)NC1=O` [06-34-18, reference compound] (H-CSWPARCLHQDLC-NH2; linker 1-7-13 via TBMB; N-terminus and C-terminus assumed), the “comparative stability in rat plasma” value [1] was “largely disappeared” and the “comparative stability in human plasma” value [2] was “largely disappeared”.

With `CC[C@H](C)[C@@H]1NC(=O)[C@H]([C@@H](C)O)NC(=O)[C@H](C(C)C)NC(=O)[C@H](CC(C)C)NC(=O)[C@H](CC(=O)O)NC(=O)[C@@H]2CSCc3cc(cc(c3)CSC[C@@H](C(=O)N[C@@H](C)C(N)=O)NC(=O)[C@H](CO)NC1=O)CSC[C@H](NC(=O)[C@H](C)N)C(=O)N[C@@H](CCCCN)C(=O)N[C@@H](CC(N)=O)C(=O)N[C@@H](Cc1ccc(O)cc1)C(=O)N[C@@H](Cc1c[nH]c3ccccc13)C(=O)N[C@@H](CC(N)=O)C(=O)N1CCC[C@H]1C(=O)N2` [06-254] (H-ACKNYWNPCDLVTISCA-NH2; linker 2-9-16 via TBMB; N-terminus assumed) the Ki (rabbit kallikrein; Table 1, synthetic peptides) was 280 nM, the Ki (rabbit kallikrein; Table 5) was 280 nM and the Ki (human plasma kallikrein; [5]) was 5.3 nM. For the same molecule, the Ki (rat plasma kallikrein; [6]) was 42.5 nM and the “S:B (Signal:Background)” value [3, 7] was 23.48.

Work on `CC(C)C[C@@H]1NC(=O)[C@H](CC(N)=O)NC(=O)[C@H](CCC(=O)O)NC(=O)[C@H](Cc2c[nH]cn2)NC(=O)[C@H](CC(C)C)NC(=O)[C@@H]2CSCc3cc(cc(c3)CSC[C@H](NC(=O)[C@H](C)N)C(=O)N3CCC[C@H]3C(=O)N[C@@H](Cc3ccc(O)cc3)C(=O)N3CCC[C@H]3C(=O)N[C@@H](Cc3ccccc3)C(=O)N[C@@H](CCCNC(=N)N)C(=O)N2)CSC[C@@H](C(=O)N[C@@H](C)C(N)=O)NC1=O` [06-258] (H-ACPYPFRCLHENLCA-NH2; linker 2-8-14 via TBMB; N-terminus and C-terminus assumed) yielded a Ki (rabbit kallikrein; Table 1, synthetic peptides) of 331 nM, a Ki (rabbit kallikrein; Table 5) of 331 nM and a Ki (human plasma kallikrein; [5]) of 4.3 nM. It also gave a Ki (rat plasma kallikrein; [6]) of 5.2 nM.

In the case of `CC[C@H](C)[C@@H]1NC(=O)[C@@H]2CCCN2C(=O)[C@@H]2CCCN2C(=O)[C@H](CC(=O)O)NC(=O)[C@H](C)NC(=O)[C@H](CO)NC(=O)[C@@H]2CSCc3cc(cc(c3)CSC[C@@H](C(=O)N[C@@H](C)C(N)=O)NC1=O)CSC[C@H](NC(=O)[C@H](C)N)C(=O)N[C@@H](CC(N)=O)C(=O)N[C@@H](Cc1c[nH]cn1)C(=O)N[C@@H](Cc1c[nH]c3ccccc13)C(=O)N[C@@H](CC(N)=O)C(=O)N1CCC[C@H]1C(=O)N[C@@H](Cc1c[nH]c3ccccc13)C(=O)N2` [06-259-03] (H-ACNHWNPWCSADPPICA-NH2; linker 2-9-16 via TBMB; N-terminus and C-terminus assumed), the Ki (human plasma kallikrein; Table 5, read-out: Human (Ki)) is reported as 1.4 nM, the Ki (rat plasma kallikrein; Table 5, read-out: Rat (Ki)) is reported as 8.2 nM and the “S:B (Signal:Background)” value [3, 8] is reported as 49.82.

For `CC(C)[C@@H]1NC(=O)[C@H](Cc2c[nH]c3ccccc23)NC(=O)CNC(=O)[C@@H]2CSCc3cc(cc(c3)CSC[C@@H](C(=O)N[C@@H](C)C(N)=O)NC(=O)[C@H](Cc3ccccc3)NC(=O)CNC(=O)CNC1=O)CSC[C@H](NC(=O)[C@H](C)N)C(=O)N[C@@H](CC(N)=O)C(=O)N[C@@H]([C@@H](C)O)C(=O)N[C@@H](Cc1c[nH]c3ccccc13)C(=O)N[C@@H](CC(N)=O)C(=O)N1CCC[C@H]1C(=O)N[C@@H](Cc1c[nH]c3ccccc13)C(=O)N2` [06-259] (H-ACNTWNPWCGWVGGFCA-NH2; linker 2-9-16 via TBMB; N-terminus and C-terminus assumed), the Ki (human plasma kallikrein; [5]) was 20.1 nM, the Ki (rat plasma kallikrein; [6]) was 6.2 nM and the “S:B (Signal:Background)” value [3, 8] was 1.17.

In the case of `CC[C@H](C)[C@@H]1NC(=O)[C@H](CC(=O)O)NC(=O)[C@@H]2CCCN2C(=O)[C@H](Cc2ccc(O)cc2)NC(=O)[C@H](Cc2ccc(O)cc2)NC(=O)[C@H](C(C)C)NC(=O)[C@@H]2CSCc3cc(cc(c3)CSC[C@@H](C(=O)N[C@@H](C)C(N)=O)NC1=O)CSC[C@H](NC(=O)[C@H](C)N)C(=O)N[C@@H](CC(N)=O)C(=O)N[C@@H](CC(N)=O)C(=O)N[C@@H](Cc1ccccc1)C(=O)N1CCC[C@H]1C(=O)N[C@@H](Cc1ccccc1)C(=O)N[C@@H](CCCNC(=N)N)C(=O)N2` [06-261] (H-ACNNFPFRCVYYPDICA-NH2; linker 2-9-16 via TBMB; N-terminus assumed), the Ki (rabbit kallikrein; Table 1, synthetic peptides) is reported as 1040 nM, the Ki (rabbit kallikrein; Table 5) is reported as 1040 nM and the Ki (human plasma kallikrein; [5]) is reported as 0.4 nM. For the same molecule, the Ki (rat plasma kallikrein; [6]) was 4 nM.

For `CC[C@H](C)[C@@H]1NC(=O)[C@H](CC(=O)O)NC(=O)[C@@H]2CCCN2C(=O)[C@H](Cc2ccc(O)cc2)NC(=O)[C@H](Cc2ccc(O)cc2)NC(=O)[C@H](C(C)C)NC(=O)[C@@H]2CSCc3cc(cc(c3)CSC[C@H](N)C(=O)N[C@@H](CO)C(=O)N[C@@H](Cc3ccccc3)C(=O)N3CC[C@H]3C(=O)N[C@@H](Cc3ccc(O)cc3)C(=O)N[C@@H](CCCCNC(=N)N)C(=O)N2)CSC[C@@H](C(N)=O)NC1=O` [06-550 Aze3 HArg5, -Ci-S-F-[Aze]-Y-[hR]-Cii-V-Y-Y-P-D-I-Ciii-] (H-CSF[Aze]Y[hArg]CVYYPDIC-NH2; linker 1-7-14 via TBMB; N-terminus and C-terminus assumed), the aqueous solubility [4] was “significantly reduced aqueous solubility”.

In the case of `CC(C)C[C@@H]1NC(=O)[C@H](C)NC(=O)[C@H](CCC(=O)O)NC(=O)[C@H](CC(=O)O)NC(=O)[C@H](C)NC(=O)[C@@H]2CCCN2C(=O)[C@@H]2CSCc3cc(cc(c3)CSC[C@@H](C(=O)NCC(N)=O)NC1=O)CSC[C@H](NC(=O)[C@H](C)N)C(=O)N[C@@H](CO)C(=O)N[C@@H](CC(=O)O)C(=O)N[C@@H](CCCNC(=N)N)C(=O)N[C@@H](Cc1ccccc1)C(=O)N[C@@H](CCCNC(=N)N)C(=O)N[C@@H](CC(N)=O)C(=O)N2` [PK15, reference compound] (H-ACSDRFRNCPADEALCG-NH2; linker 2-9-16 via TBMB (inferred); N-terminus and C-terminus assumed), the Ki (human plasma kallikrein; text b212, read-out: Ki to human kallikrein) is reported as ~1.2 nM, the Ki (rat plasma kallikrein; text b212, read-out: Ki to rat kallikrein) is reported as ~500 nM and the “S:B (Signal:Background)” value [3, 7] is reported as 14.05. For the same molecule, the “S:B (Signal:Background)” value [3, 8] was 14.05.
